Several values for one entry are separate records, joined by “and”; a condition that tells them apart may be missing. Identical values can stand only once.
How the values were obtained:
LecA [1] = biological target: T1, LecA (Pseudomonas aeruginosa, UniProt Q05097); assay: Isothermal titration calorimetry with LecA; type: binding; conditions: for -TΔS (ITC, average) / N (ITC stoichiometry, average) / ΔG (ITC, average) / ΔH (ITC, average): LecA, average ± s.d.
T1 construct: made in house
Description: (§1) Next, binding of the optimized divalent ligand 17 and its synthetic precursor 16 to LecA was evaluated by fluorescence polarization-based (FP) assays,[47] SPR, and ITC. […] Therefore, fluorescent ligand 17 was analyzed in a direct binding experiment by FP. […] The dissociation constants for 16 were 47.2 ± 11.3 nM (ITC) and 47.8 ± 44.1 nM (steady-state SPR), while for 17, the values were 64.1 ± 31.1 nM and 79.3 ± 24.9 nM (steady-state SPR). For the SPR experiments, Kd was also determined by single-cycle kinetic analysis resulting in approximately five times higher affinity, but the data have limited reliability due to suboptimal fit for the kinetic curves (Figures S13B and S14).[58]−[60]
Figure 3 Evaluation of the optimized fluorescent ligand 17 and its synthetic precursor 16 in LecA binding using thermodynamic analysis by ITC. Data for one representative experiment are depicted. Averages and standard deviation from at least three independent experiments (*two independent experiments). TEXT PRINTED IN THE PICTURE: 16: ΔG [kJ/mol]: -41.9 ± 0.6*; ΔH [kJ/mol]: -89.3 ± 0.8*; -TΔS [kJ/mol]: 47.4 ± 1.4*; N: 0.47 ± 0.03*; Kd [nM]: 47.2 ± 11.3* | 17: ΔG [kJ/mol]: -41.4 ± 1.2; ΔH [kJ/mol]: -83.5 ± 3.2; -TΔS [kJ/mol]: 42.1 ± 4.3; N: 0.50 ± 0.03; Kd [nM]: 64.1 ± 31.1 […]
Isothermal titration calorimetry (ITC) was performed on an iTC200 (Malvern Panalytical) and the data were analyzed using Microcal Origin software (Malvern Panalytical).
LecA (50 µM) in the cell was titrated with ligand (100 µM or 200 µM) in TBS/Ca2+ buffer supplemented with 5% DMSO at 25 °C. Steep titration slopes achieved with the divalent ligands were the result of high amount of protein present and the high binding affinity of the ligand (high ‘value of c’).22 However, LecA protein concentration lower than 50 µM resulted in insufficient signal as a consequence of the low heat released upon binding.
Figure S15: ITC measurements of divalent alkyne ligand 16 with LecA performed in TBS/Ca2+ buffer with 5% […]
Figure S16: ITC measurements of divalent fluorescent ligand 17 with LecA performed in TBS/Ca2+ buffer with […]
50 µM LecA 50 µM LecA 50 µM LecA

LecA [2] = biological target: T1, LecA; assay: Surface plasmon resonance, LecA binding
Description: as §1, with “S14).[58]−[60] […]” for “S14).[58]−[60]”
Surface plasmon resonance experiments were performed on a BIACORE X100 instrument (GE Healthcare) at 25 °C as described by Zahorska et. al..2 Averages and standard deviations were calculated from three independent experiments. […]
Stability and LecA binding and inhibition of divalent LecA ligands
100 Expe rime ntal data 1:1 fi t 120 Expe rime ntal data 1:1 fi t
100 Expe rime ntal dataSame well1:1 fi t 80 Expe rime ntal data 1:1 fi t
-20 Time [s] -20 Times [s]
100 Expe rime ntal data 1:1 fi t 80 Expe rime ntal data 1:1 fi t mode l
-20 Time [s] -20 Time [s]
(§2) Figure S7: SPR of divalent LecA acylhydrazone ligand S36 and divalent fluorescent ligand S31. Sensorgrams obtained from SPR single-cycle kinetics experiments. Five different concentrations of each compound (0, 10, 50, 100, 200 nM) were sequentially injected to obtain the experimental sensorgrams (orange lines), which were then fitted by a 1:1 model (blue lines) on BIACORE evaluation software.
(also on this page, place not known: 561 and ZAA-116 ZAA-112 100012001400 Response [RU] Experimental fit 100012001400 Response [RU] Experimental fit 100012001400 Response [RU] Experimental fit Response [RU] Experimental fit Response [RU] Experimental fit model 100012001400 Response [RU] Experimental data 1:1 fit Same well) […]
0 kon koff kinetic equilibrium#
Figure S13:C Evaluation of the optimized fluorescent ligand Time (min)17 and its synthetic precursor Time (min)16 in LecA […]
binding assays. (A) Competitive binding (top) and direct binding (bottom) by fluorescence polarization. (B) Kinetic and equilibrium analysis by SPR (0.20 #values with limited reliability, equilibrium not fully reached). Data for one representative experiment are depicted in A0.00ZAA-202 and B. Averages and std. dev. from at least three independent 0.00ZAA-203 […]
30 -0.4Expe rime ntal data0 1:1 fi t 25 -0.20Expe rime ntal data 1:1 fi t […]
25 Expe rime ntal data 1:1 fi t Expe rime ntal data 1:1 fi t
15 Molar Ratio 25 Molar Ratio […]
as §2, with “S14:” for “S7:”, “LecA” for “LecA acylhydrazone”, “16” for “S36”, “17.” for “S31.”

[3] = individual experiments, 50 µM LecA

T1 sequence (Q05097 whole entry): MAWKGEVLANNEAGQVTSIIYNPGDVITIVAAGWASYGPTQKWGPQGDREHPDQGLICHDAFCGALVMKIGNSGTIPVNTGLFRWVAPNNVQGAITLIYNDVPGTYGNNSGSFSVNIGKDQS

SMILES | Kd (LecA [1]; Kd (ITC, average), LecA 50 µM, TBS/Ca2+ with 5% DMSO, 25 °C, average ± s.d. (16: two experiments)) [nM] | Kd (LecA [1]; Kd (ITC, single titration), individual experiments, 50 µM LecA) | -TΔS (ITC, average) (LecA [1]; 25 °C) [kcal/mol] | N (ITC stoichiometry, average) (LecA [1]; 25 °C) | ΔG (ITC, average) (LecA [1]; 25 °C) [kcal/mol] | ΔH (ITC, average) (LecA [1]; 25 °C) [kcal/mol] | -TΔS (ITC, single titration) (LecA [1]; [3]) | N (ITC, single titration) (LecA [1]; [3]) | ΔG (ITC, single titration) (LecA [1]; [3]) | ΔH (ITC, single titration) (LecA [1]; [3]) | Kd (LecA [2]; equilibrium Kd (steady-state SPR), values with limited reliability, equilibrium not fully reached) [nM] | Kd (LecA [2]; kinetic Kd (SPR), single-cycle kinetics, limited reliability, suboptimal fit) [nM] | koff (LecA [2]; read-out: koff (SPR)) [s⁻¹] | kon (LecA [2]; read-out: kon (SPR)) [M⁻¹ s⁻¹] | Kd (LecA [1]; read-out: Kd (ITC, average), LecA 50 µM, TBS/Ca2+ with 5% DMSO, 25 °C, average ± s.d. (16: two experiments)) [nM] | Kd (LecA [1]; read-out: Kd (ITC, single titration), individual experiments, 50 µM LecA) | Kd (LecA [2]; read-out: equilibrium Kd (steady-state SPR), values with limited reliability, equilibrium not fully reached) [nM] | Kd (LecA [2]; read-out: kinetic Kd (SPR), single-cycle kinetics, limited reliability, suboptimal fit) [nM]
C#CCCN(Cc1ccc(NC(=O)CCc2ccc(O[C@@H]3O[C@H](CO)[C@H](O)[C@H](O)[C@H]3O)cc2)cc1)Cc1ccc(NC(=O)CCc2ccc(O[C@@H]3O[C@H](CO)[C@H](O)[C@H](O)[C@H]3O)cc2)cc1 [compound 16] | 47.2 ± 11.3 | 36 nM and 58.5 nM | 11.3 ± 0.335 | 0.47 ± 0.03 | -10 ± 0.14 | -21.3 ± 0.19 | 48,8 kJ/mol and 45,9 kJ/mol | 0,45 and 0,50 | -41,3 kJ/mol and -42,5 kJ/mol | -90,1 kJ/mol and -88,5 kJ/mol | 47.8 ± 44.1 | 9.9 ± 0.5 | 0.00359 ± 0.0013 | 359000 ± 110000 | – | – | – | –
O=C(CCc1ccc(O[C@@H]2O[C@H](CO)[C@H](O)[C@H](O)[C@H]2O)cc1)Nc1ccc(CN(CCc2cn(CCOCCOCCOCCNC(=S)Nc3ccc4c(c3)C(=O)OC43c4ccc(O)cc4Oc4cc(O)ccc43)nn2)Cc2ccc(NC(=O)CCc3ccc(O[C@@H]4O[C@H](CO)[C@H](O)[C@H](O)[C@H]4O)cc3)cc2)cc1 [compound 17] | – | – | 10.1 ± 1.03 | 0.50 ± 0.03 | -9.89 ± 0.287 | -20 ± 0.765 | 38,3 kJ/mol and 39,8 kJ/mol and 48,2 kJ/mol | 0,46 and 0,52 and 0,51 | -42,9 kJ/mol and -41,5 kJ/mol and -39,8 kJ/mol | -81,2 kJ/mol and -81,3 kJ/mol and -88,1 kJ/mol | – | – | – | – | 64.1 ± 31.1 | 31.3 nM and 55.3 nM and 106 nM | 79.3 ± 24.9 | 19.3 ± 10.5
